Where two headings read alike, the source gives them in different places.
Legend:
[1] = biological target: BACE 1 (Beta Secretase enzyme) (Homo sapiens, UniProt P56817); experiment: In vitro enzymatic BACE FRET assay; format: biochemical
Experimental: In Vitro Enzymatic BACE FRET (Fluorescence Resonance Energy Transfer) Assay (Enzyme Assay Data in Table 1)
The assay buffer used in this screen is 0.05 M acetate, pH 4.2, 10% DMSO final, 100 uM genapol (which is a nonionic detergent, below its Critical Micelle Concentration). […] The assay is effectively started by the addition of FRET substrate (50 nM) and the combination is incubated for one hour. The FRET assay is terminated with by addition of Tris buffer, which raises the pH to neutrality, and the fluorescence is determined. The FRET substrate is a peptide with commercially available fluorophore and quencher, on opposite sides of the BACE cleavage site.

[2] = system: Aβ40 in conditioned medium of cells stably expressing Amyloid Precursor Protein (APP); experiment: In vitro BACE cell-based assay (HEK cell assay), Aβ40 sandwich ELISA
Experimental: In Vitro BACE Cell-Based Assay:
The cell-based assay measures inhibition or reduction of Aβ40 in conditioned medium of test compound treated cells expressing amyloid precursor protein.
Cells stably expressing Amyloid Precursor Protein (APP) were plated at a density of 40K cells/well in 96 well plates (Costar). The cells were cultivated for 24 hours at 37° C. and 5% CO2 in DMEM supplemented with 10% FBS. The test compounds were then added to cells in 10-point dose response concentrations with the starting concentration being either 100 μM or 10 μM. The compounds were diluted from stock solutions in DMSO and the final DMSO concentration of the test compounds on cells was 0.1%. After 24 h of incubation with the test compounds the supernatant conditioned media was collected and the Aβ 40 levels were determined using a sandwich ELISA. The IC50 of the compound was calculated from the percent of control or percent inhibition of Aβ 40 as a function of the concentration of the test compound.
The sandwich ELISA to detect Aβ 40 was performed in 96 well microtiter plates, which were pre-treated with goat anti-rabbit IgG (Pierce). The capture and detecting antibody pair that were used to detect Aβ 40 from cell supernatants were affinity purified pAb40 (Biosource) and biotinylated 6E10 (Signet Labs Inc.), respectively. The optimal concentration for the pAb40 antibody was 3 μg/ml in Superblock/TBS (Pierce) that was supplemented with 0.05% Tween 20 (Sigma).
Cellular supernatants were incubated with the capture antibody for 3 h at 4° C., followed by 3 wash steps in TBS-tween (0.05%). The detecting antibody incubation was for 2 h at 4° C., again followed by the wash steps as described previously. The final readout of the ELISA is Time-Resolved Fluorescence (counts per minute) using Delfia reagents Streptavidin-Europium and Enhancement solutions (Perkin Elmer) and the Victor 2 multilabel counter (Perkin Elmer).

[3] = IC50 range symbols, Table 1, read-out: BACE 1 FRET assay
[4] = Homo sapiens, HEK293, 24 h, IC50 range symbols, Table 1, Aβ40, 24 h incubation, read-out: HEK cell assay

BACE 1 (Beta Secretase enzyme), sequence (P56817 46-501, species assumed): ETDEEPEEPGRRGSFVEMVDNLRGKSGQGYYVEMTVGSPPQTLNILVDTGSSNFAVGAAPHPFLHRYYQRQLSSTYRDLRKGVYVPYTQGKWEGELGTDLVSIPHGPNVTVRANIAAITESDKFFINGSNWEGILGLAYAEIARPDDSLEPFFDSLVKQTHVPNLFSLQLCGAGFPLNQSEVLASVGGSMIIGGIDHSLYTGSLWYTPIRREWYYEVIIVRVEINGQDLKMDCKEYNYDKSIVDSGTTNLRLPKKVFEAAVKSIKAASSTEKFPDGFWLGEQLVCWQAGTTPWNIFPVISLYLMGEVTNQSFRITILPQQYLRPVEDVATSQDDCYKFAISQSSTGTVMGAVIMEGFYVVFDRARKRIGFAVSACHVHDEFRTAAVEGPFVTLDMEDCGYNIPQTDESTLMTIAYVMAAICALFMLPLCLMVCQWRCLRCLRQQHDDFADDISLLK

| Compound | IC50 [1, 3] [nM] | IC50 [2, 4] [nM] | IC50 ([2]; IC50 range symbols, Table 1, Aβ40, 24 h incubation, read-out: HEK cell assay) [nM] | IC50 ([1]; bound stated, read-out: IC50 value in the FRET BACE enzyme assay) [nM] | IC50 ([2]; Homo sapiens, HEK293, bound stated in text, read-out: IC50 value in the BACE cell-based in-vitro assay) [nM] |
| --- | --- | --- | --- | --- | --- |
| Cc1ccccc1-c1ccc2nc(N)c(CCC(=O)NCc3ncco3)cc2c1 [Example 67, 3-(2-amino-6-o-tolylquinolin-3-yl)-N-(oxazol-2-ylmethyl)propanamide] | < 500 | 1000 to 5000 | – | – | – |
| N#Cc1ccccc1-c1ccc2nc(N)c(CCC(=O)NCC3CCCCC3)cc2c1 [Example 41, 3-(2-amino-6-(2-cyanophenyl)quinolin-3-yl)-N-(cyclohexylmethyl)propanamide] | < 500 | 1000 to 5000 | – | – | – |
| Cc1ccccc1-c1ccc2nc(N)c(CCC(=O)NCCC(C)(C)O)cc2c1 [Example 141, 3-(2-amino-6-(2-methylphenyl)-3-quinolinyl)-N-(3-hydroxy-3-methylbutyl)propanamide] | < 500 | 500 to 1000 | – | – | – |
| CNC(=O)C(C)Cc1cc2cc(-c3c(C)cccc3C(=O)N3CCCC3)ccc2nc1N (stereo not drawn) [Example 148, 3-(2-Amino-6-(2-methyl-6-(pyrrolidine-1-carbonyl)phenyl)quinolin-3-yl)-N, 2-dimethylpropanamide] | < 500 | < 500 | – | – | – |
| CC(Cc1cc2cc(-c3ncccc3Cl)ccc2nc1N)C(=O)NC[C@@H]1CCCCO1 (stereo partly drawn) [Example 82, 3-(2-amino-6-(3-chloropyridin-2-yl)quinolin-3-yl)-2-methyl-N-(((S)-tetrahydro-2H-pyran-2-yl)methyl)propanamide] | 500 to 1000 | 1000 to 5000 | – | – | – |
| N-(4-fluoro-4-methylpentan-2-yl)-2-methyl-3-(6-(3-methylpyridin-2-yl)quinolin-3-yl)propanamide [Example 100] | 500 to 1000 | – | 1000 to 5000 | – | – |
| Cc1ccccc1-c1ccc2nc(N)c(C[C@@H](C)C(=O)NC3C[C@@H](C)O[C@@H](C)C3)cc2c1 (stereo partly drawn) [Example 12, (2R)-3-(2-amino-6-o-tolylquinolin-3-yl)-N-(cis-2,6-dimethyltetrahydro-2H-pyran-4-yl)-2-methylpropanamide] | < 500 | < 500 | – | < 50 | < 100 |
| Cc1ccccc1-c1ccc2nc(N)c(CC(C)C(=O)N[C@H](C)c3ccccc3OC(F)F)cc2c1 (stereo partly drawn) [Example 77, 3-(2-amino-6-o-tolylquinolin-3-yl)-N-((R)-1-(2-(difluoromethoxy)phenyl)ethyl)-2-methylpropanamide] | < 500 | 1000 to 5000 | – | – | – |
| Cc1cccc(C(=O)N2CCCC2)c1-c1ccc2nc(N)c(CC(C)C(=O)NCc3ccccc3)cc2c1 (stereo not drawn) [Example 151, 3-(2-amino-6-(2-methyl-6-(pyrrolidine-1-carbonyl)phenyl)quinolin-3-yl)-N-benzyl-2-methylpropanamide] | < 500 | < 500 | – | – | – |
| Cc1cccnc1-c1ccc2nc(N)c(CC(C)C(=O)NCCC3CC3)cc2c1 (stereo not drawn) [Example 111, 3-(2-amino-6-(3-methylpyridin-2-yl)quinolin-3-yl)-N-(2-cyclopropylethyl)-2-methylpropanamide] | < 500 | 1000 to 5000 | – | – | – |
| CCn1ccc(CNC(=O)CCc2cc3cc(-c4ccccc4C)ccc3nc2N)n1 [Example 59, 3-(2-amino-6-o-tolylquinolin-3-yl)-N-((1-ethyl-1H-pyrazol-3-yl)methyl)propanamide] | < 500 | 1000 to 5000 | – | – | – |
| Cc1ccccc1-c1ccc2nc(N)c(CCC(=O)NCc3ccccc3)cc2c1 [Example 23, 3-(2-amino-6-o-tolylquinolin-3-yl)-N-benzylpropanamide] | < 500 | < 500 | – | – | – |
| Cc1ccccc1-c1ccc2nc(N)c(CCC(=O)NCC3CCCCO3)cc2c1 (stereo not drawn) [Example 40, 3-(2-amino-6-o-tolylquinolin-3-yl)-N-((tetrahydro-2H-pyran-2-yl)methyl)propanamide] | < 500 | 1000 to 5000 | – | – | – |
| CO[C@@H]1CCC[C@H]1NC(=O)CCc1cc2cc(-c3ccccc3C)ccc2nc1N [Example 62, 3-(2-amino-6-o-tolylquinolin-3-yl)-N-((1R,2R)-2-methoxycyclopentyl)propanamide] | < 500 | 1000 to 5000 | – | – | – |

— patent US9296698B2, “Amino heteroaryl compounds as beta-secretase modulators and methods of use” (Amgen Inc., priority 2009, dated 2016)
